Assay results taken from patent US20100022652A1, “Antimicrobial and Anticoagulant Compositions and Methods” (Tyco Healthcare Group LP, priority 2008, published 2010).

Experiments:
[1] = tested on: clot formation in normal anticoagulated plasma; assay: Prothrombin time (PT) assay, PT converted to INR; type: biochemical, human; settings: ISI 1.65
Method: The Prothrombin Time (PT) Assay primarily measures the time required for the clot formation in a test sample. Per the assay, the test samples first mixed with normal anticoagulated plasma in a ratio of 1:9 and incubated for 2 minutes at Room temperature. Then tissue thromboplastin with calcium ions is added to the test samples. The samples are then incubated for 2 minutes at 37° C. Tissue thromboplastin and calcium ions is added to normal anticoagulated plasma mixed with formulation, to initiate the clotting mechanism leading to formation of a fibrin clot. The coagulation analyzer is utilized to record the PT required for clot formation. The PT so obtained is then converted to International Normalized Ratio (INR) by utilizing the following formula:
INR=(PTTest Sample/PTControl Level 1)^ISI;
wherein ISI (International Sensitivity Index)—indicates the sensitivity of individual thromboplastin. The value of ISI utilized in the anticoagulant investigations reported herein is 1.65.
If the deficiency exists within coagulation pathway (for example test blood contains heparin or other anticoagulant) the time required for clot formation will be prolonged. Any INR values ≧ that of abnormal plasma level 2 (e.g., TriniCHECK™ Level 2; Trinity Biotech) are considered indicative of deficiency within the coagulation pathway, and thus indicative of highly anticoagulative properties. Any INR values higher than 5.5 are considered indicative of highly anticoagulant behavior. Therefore, the strength of an anticoagulant can be characterized by the INR value, i.e., the larger the INR value the stronger the anticoagulant properties.

[2] = tested on: Pseudomonas aeruginosa (ATCC 27853); assay: Checkerboard titration / micro-dilution antimicrobial synergy evaluation (MIC, FIC); type: cell-based
Method: The combinations having an FIC index of ≦0.5 are considered synergistic while a FIC index of >0.5 but ≦1 are considered partially synergistic.
First, potential antimicrobial synergy in a composition having a combination of EDTA and NAC components was investigated with respect to the Pseudomonas aeruginosa (ATCC 27853) microorganism.
According to this method the stock solutions are prepared having a concentration equivalent or higher than twice the MIC of the components among which synergy is to be tested.
As the solutions get turbid, a higher optical density values generated. Generally speaking, increased turbidity, and thus higher optical density readings, are indicative of the presence of micro organisms in the solution. During analysis of the samples, optical density measurements above a predetermined cutoff value is indicative that there are microorganisms present in the solutions or samples, and are thus characterized by positive growth (+), while optical density readings which fall below the cutoff value can be characterized by negative growth (−). A number of the OD measurements were made (OD1, OD2, OD3), and the mean value calculated.

| Compound | INR ([1]; 4 wt % DEDTA alone) | INR ([1]; at 8 wt %) | MIC [2] |
| --- | --- | --- | --- |
| O=C([O-])CN(CCN(CC(=O)[O-])CC(=O)O)CC(=O)O.[Na+].[Na+] [DEDTA, disodium EDTA] | 16.7 | > 233 | 0.25 wt % |
| CC(=O)N[C@@H](CS)C(=O)O [NAC, N-Acetyl Cysteine] | – | > 26 | 0.25 wt % |
